Results taken from BigSolDB 2.1.

CC(C(=O)O)c1ccc2c(c1)[nH]c1ccc(Cl)cc12 (stereo not given)
solubility (mole fraction)
Conditions | in acetic acid | in ethylene glycol | in formic acid | in glycerin | in isobutanol | in isopropanol | in n-butanol | in n-octanol | in n-propanol | in propylene glycol
288.15 K | 0.00687 | 0.00349 | 0.000435 | 0.000115 | 0.00942 | 0.0145 | 0.014 | 0.0143 | 0.0157 | 0.0055
293.15 K | 0.00706 | 0.00433 | 0.000547 | 0.000147 | 0.0103 | 0.0179 | 0.0174 | 0.0177 | 0.0195 | 0.0069
298.15 K | 0.00863 | 0.00585 | 0.00074 | 0.000209 | 0.0137 | 0.0267 | 0.0243 | 0.0248 | 0.0315 | 0.00753
303.15 K | 0.00998 | 0.00715 | 0.00116 | 0.000301 | 0.0177 | 0.031 | 0.0283 | 0.0295 | 0.0378 | 0.00936
308.15 K | 0.0126 | 0.00861 | 0.00146 | 0.000437 | 0.0243 | 0.0359 | 0.0346 | 0.035 | 0.0418 | 0.0121
313.15 K | 0.0174 | 0.0117 | 0.00201 | 0.00052 | 0.0287 | 0.0436 | 0.0389 | 0.0391 | 0.0507 | 0.0153
318.15 K | 0.0216 | 0.0168 | 0.00287 | 0.000851 | 0.0357 | 0.048 | 0.0441 | 0.0448 | 0.0598 | 0.0183
323.15 K | 0.0268 | 0.0194 | 0.00388 | 0.00133 | 0.0432 | 0.0601 | 0.0526 | 0.0537 | 0.0743 | 0.0223
